Experiments:
[1] = system: MEDI-524 (Numax™); assay: Binding ELISA of F-peptides; conditions: peptide coated on plate
Method: Based in part upon the results of the MARM analysis above, F peptides were synthesized (done by AnaSpec, Inc. San Jose, Calif.). Each well of the assay plate was coated with […] of […] of a particular soluble RSV F-Peptide overnight at 2-8° C. After the plate was aspirated and washed with PBS/0.05% Tween-20 buffer, it was blocked by incubating with PBS/0.05% Tween-20/0.5% BSA buffer for one hour at ambient temperature. The plate was washed and MEDI-524 standard curve samples, test samples, MEDI-524 Reference Standard, and negative control were added to the washed plate. Following a one-hour incubation at ambient temperature, the plate was washed, and […] of a goat anti-human IgG-HRP (horseradish peroxidase) at 1:16,000 dilution was added to the plate. After washing, […] of 3,3′,5,5′-tetramethylbenzidine (TMB) substrate was then added to the plate and incubated at ambient temperature protected from light for 10 minutes. The enzymatic reaction was stopped by adding […] of 2N H2SO4, and the absorbance at 450 nm was measured using a microplate reader. […] After meeting all system suitability requirements, as well as meeting the criteria of the parallelism test, the ED50 ratio of the test sample to Reference Standard was calculated, and the results were expressed as a percentage of the Reference Standard binding activity. […]

[2] = system: MEDI-524 Mab; assay: Isothermal titration calorimetry (ITC) of F peptides with MEDI-524 Mab; format: binding; conditions: 25 mM His, pH 6, 10° C.
From the text: Isothermal Titration calorimetry assays (ITC) have been described (see, for example, Heerklotz H et al., Biophysical Journal, May 1999). Molecular interactions are defined by stoichiometry and a few thermodynamic parameters. All binding reactions are associated with the absorption or generation of heat. Therefore calorimetry is emerging as a premier tool for the characterisation of interactions of biological macromolecules. ITC is the only method that measures equilibrium constants, enthalpy and entropy in one single experiment. If the experiment is performed at different temperatures the important parameter, the heat capacity change, can be determined. ITC has become a standard method for investigating the binding of ligands to receptor molecules. Accordingly, ligands are mixed with receptors, and the subsequent heats of incorporation (or binding) are measured.
To evaluate the binding properties of the wild-type peptide (SEQ ID NO.28) to Numax™/MEDI-524 by using the ITC technique. The MEDI-524 Mab was titrated with SEQ ID NO.28 in the basis buffer 25 mM His, pH 6 at 10° C. SEQ ID NO.28: (MW=2732.14, no W, Y, or C). A working solution of 55 μM was prepared by diluting 30 μL of a 5 mg/mL peptide solution with 970 μL, of 25 mM His, pH 6 buffer to be used for the ITC titrations. A 1.15 μM (0.1706 mg/ml) working solution of MEDI-524 was used for the experiments (MW 148400, A280=1.47). […]

Substance | Binding to Numax™ compared with wild-type F protein epitope (SEQ ID NO. 1) [1] | binding strength lower compared to the SEQ ID NO.24 peptide [2]
F peptide with a histidine at position 262: F peptide with a histidine at position 262; SEQ ID number not stated (SEQ ID No: 13, 25 and 26 carry it) (NSELLSLIHDMPITNDQKKLMSNN) | more tightly | 
NSELLSLINDMPITNDQKKLMSNN-NH2 [SEQ ID NO.28] |  | ~3 orders of magnitude
